Values after ≈ are worked out from the molar mass of the structure shown.
Legend:
hRV-63 = assay: Rhinovirus type 63 antiviral assay in Hela Rh cells, MTS readout; assay type: cell-based, Human rhinovirus; details: Human rhinovirus sp., HRV63, HeLa Rh, Hela Rh cells; read-out: hRV-63 EC50
hRV-15 = assay: Rhinovirus type 15 antiviral assay in Hela Rh cells, MTS readout; assay type: cell-based, Human rhinovirus; details: Human rhinovirus sp., HRV15, HeLa Rh, Hela Rh cells; read-out: hRV-15 EC50
hRV-9 = assay: Rhinovirus type 9 antiviral assay in Hela Rh cells, MTS readout; assay type: cell-based, Human rhinovirus; details: Human rhinovirus sp., HRV9, HeLa Rh, Hela Rh cells; read-out: hRV-9 EC50
hRV-86 = assay: Rhinovirus type 86 antiviral assay in Hela Rh cells, MTS readout; assay type: cell-based, Human rhinovirus; details: Human rhinovirus sp., HRV86, HeLa Rh, Hela Rh cells; read-out: hRV-86 EC50
hRV-72 = assay: Rhinovirus type 72 antiviral assay in Hela Rh cells, MTS readout; assay type: cell-based, Human rhinovirus; details: Human rhinovirus sp., HRV72, HeLa Rh, Hela Rh cells; read-out: hRV-72 EC50
hRV-45 = assay: Rhinovirus type 45 antiviral assay in Hela Rh cells, MTS readout; assay type: cell-based, Human rhinovirus; details: Human rhinovirus sp., HRV45, HeLa Rh, Hela Rh cells; read-out: hRV-45 EC50
[1] = Cytostatic/cytotoxic effect in Hela Rh cells (rhinovirus methodology, MTS); details: human, CC50, Hela Rh cells
hRV-70 = assay: Rhinovirus type 70 antiviral assay in Hela Rh cells, MTS readout; assay type: cell-based, Human rhinovirus; details: Human rhinovirus sp., HRV70, HeLa Rh, Hela Rh cells; read-out: hRV-70 EC50
hRV-29 = assay: Rhinovirus type 29 antiviral assay in Hela Rh cells, MTS readout; assay type: cell-based; details: Human rhinovirus sp., HRV29, HeLa Rh, Hela Rh cells; read-out: hRV-29 EC50
hRV-14 = assay: Rhinovirus type 14 antiviral assay in Hela Rh cells, MTS readout; assay type: cell-based, Human rhinovirus; details: Rhinovirus B, HRV14, HeLa Rh, Hela Rh cells; read-out: hRV-14 EC50
hRV-39 = assay: Rhinovirus type 39 antiviral assay in Hela Rh cells, MTS readout; assay type: cell-based, Human rhinovirus; details: Human rhinovirus sp., HRV39, HeLa Rh, Hela Rh cells; read-out: hRV-39 EC50
hRV-85 = assay: Rhinovirus type 85 antiviral assay in Hela Rh cells, MTS readout; assay type: cell-based, Human rhinovirus; details: Human rhinovirus sp., HRV85, HeLa Rh, Hela Rh cells; read-out: hRV-85 EC50
hRV-42 = assay: Rhinovirus type 42 antiviral assay in Hela Rh cells, MTS readout; assay type: cell-based, Human rhinovirus; details: Human rhinovirus sp., HRV42, HeLa Rh, Hela Rh cells; read-out: hRV-42 EC50
hRV-2 = assay: Rhinovirus type 2 antiviral assay in Hela Rh cells, MTS readout; assay type: cell-based, Human rhinovirus; details: Rhinovirus A, HRV2, HeLa Rh, Hela Rh cells; read-out: hRV-2 EC50
hRV-41 = assay: Rhinovirus type 41 antiviral assay in Hela Rh cells, MTS readout; assay type: cell-based, Human rhinovirus; details: Human rhinovirus sp., HRV41, HeLa Rh, Hela Rh cells; read-out: hRV-41 EC50

Row | Compound | EC50 (hRV-63) [mg/L] | EC50 (hRV-15) [mg/L] | EC50 (hRV-9) [mg/L] | EC50 (hRV-86) [mg/L] | EC50 (hRV-72) [mg/L] | EC50 (hRV-45) [mg/L] | CC50 [1] [mg/L] | EC50 (hRV-70) [mg/L] | EC50 (hRV-29) [mg/L] | EC50 (hRV-14) [mg/L] | EC50 (hRV-39) [mg/L] | EC50 (hRV-85) [mg/L] | EC50 (hRV-42) [mg/L] | EC50 (hRV-2) [mg/L] | EC50 (hRV-41) [mg/L]
1 | Nc1nc(N2CCN(C(=O)COc3cccc([N+](=O)[O-])c3)CC2)c2nc(CCc3ccc(F)cc3)sc2n1 [Example 131, 5-amino-2-[2-(4-fluorophenyl)ethyl]-7-(4-[2-(3-nitrophenoxy)acetyl]piperazin-1-yl)-thiazolo[5,4-d]pyrimidine] | 34.5 (≈ 64.3 µM) | > 50 | 2.11 (≈ 3.93 µM) | 7.07 (≈ 13.2 µM) | 37.7 (≈ 70.2 µM) | 9.05 (≈ 16.8 µM) | > 50 | 15.3 (≈ 28.4 µM) | > 50 | > 50 | 1.52 (≈ 2.83 µM) | 7.26 (≈ 13.5 µM) | 12.3 (≈ 22.8 µM) | 2.5 (≈ 4.65 µM) | > 50
2 | Nc1nc(N2CCN(C(=O)COc3ccc(O)cc3)CC2)c2nc(CCc3ccc(F)cc3)sc2n1 [Example 224, 1-(4-(5-amino-2-(4-fluorophenethyl)thiazolo[5,4-d]pyrimidin-7-yl)piperazin-1-yl)-2-(4-hydroxyphenoxy)ethanone] | 25.4 (≈ 49.8 µM) | 2.32 (≈ 4.56 µM) | 0.89 (≈ 1.75 µM) | 20 (≈ 39.4 µM) | > 50 | 4.55 (≈ 8.95 µM) | > 50 | 8.62 (≈ 16.9 µM) | 0.49 (≈ 0.963 µM) | 3.44 (≈ 6.76 µM) | 0.32 (≈ 0.629 µM) | 2.09 (≈ 4.11 µM) | > 50 | 0.66 (≈ 1.3 µM) | 2.26 (≈ 4.44 µM)
3 | COC(=O)c1ccc(OCC(=O)N2CCN(c3nc(N)nc4sc(CCc5ccc(F)cc5)nc34)CC2)cc1 [Example 225, methyl 4-(2-(4-(5-amino-2-(4-fluorophenethyl)thiazolo[5,4-d]pyrimidin-7-yl)piperazin-1-yl)-2-oxoethoxy)benzoate] | 39.7 (≈ 72.1 µM) | > 50 | > 50 | > 50 | > 50 | 43.1 (≈ 78.3 µM) | 5.34 (≈ 9.7 µM) | > 50 | > 50 | > 50 | > 50 | 14.6 (≈ 26.5 µM) | > 50 | 1.12 (≈ 2.03 µM) | > 50
4 | Nc1nc(N2CCN(C(=O)COc3cccc(Cl)c3)CC2)c2nc(CCc3ccc(F)cc3)sc2n1 [Example 228, 1-(4-(5-amino-2-(4-fluorophenethyl)thiazolo[5,4-d]pyrimidin-7-yl)piperazin-1-yl)-2-(3-chlorophenoxy)ethanone] | 13.8 (≈ 26.1 µM) | 43.9 (≈ 83.2 µM) | 1.16 (≈ 2.2 µM) | 4.86 (≈ 9.22 µM) | > 50 |  | > 50 | 10 (≈ 19.1 µM) | 1.38 (≈ 2.62 µM) | 9.21 (≈ 17.5 µM) | 1.28 (≈ 2.43 µM) | 4.14 (≈ 7.86 µM) |  | 1.27 (≈ 2.41 µM) | > 50
5 | COc1ccc(OCC(=O)N2CCN(c3nc(N)nc4sc(Cc5ccc(F)cc5)nc34)CC2)cc1 [Example 230, 1-(4-(5-amino-2-(4-fluorobenzyl)thiazolo[5,4-d]pyrimidin-7-yl)piperazin-1-yl)-2-(4-methoxyphenoxy)ethanone] | 0.54 (≈ 1.06 µM) | 0.38 (≈ 0.747 µM) | 0.09 (≈ 0.177 µM) | 2.36 (≈ 4.64 µM) | 8.55 (≈ 16.8 µM) | 1.13 (≈ 2.22 µM) | > 50 | 2.37 (≈ 4.66 µM) | 0.04 (≈ 0.0787 µM) | 0.39 (≈ 0.767 µM) | 0.04 (≈ 0.0787 µM) | 0.61 (≈ 1.2 µM) | < 0.39 |  | 0.58 (≈ 1.14 µM)
6 | COc1ccc(OCC(=O)N2CCN(c3nc(N)nc4sc(-c5ccc(F)cc5)nc34)CC2)cc1 [Example 234, 1-(4-(5-amino-2-(4-fluorophenyl)thiazolo[5,4-d]pyrimidin-7-yl)piperazin-1-yl)-2-(4-methoxyphenoxy)ethanone] | 1.32 (≈ 2.67 µM) | 29.3 (≈ 59.2 µM) |  | > 50 | > 50 |  | > 50 | > 50 | 0.04 (≈ 0.0809 µM) | > 50 | 0.08 (≈ 0.162 µM) | < 0.39 | 30.1 (≈ 60.9 µM) | 0.06 (≈ 0.121 µM) | 25.5 (≈ 51.6 µM)
7 | COc1ccc(OCC(=O)N2CCN(c3nc(N)nc4sc(CCc5ccc(C)cc5)nc34)CC2)cc1 [Example 259, 1-(4-(5-amino-2-(4-methylphenethyl)thiazolo[5,4-d]pyrimidin-7-yl)piperazin-1-yl)-2-(4-methoxyphenoxy)ethanone] | 18.3 (≈ 35.3 µM) | > 50 | 0.35 (≈ 0.675 µM) |  | > 50 | 2.56 (≈ 4.94 µM) | > 50 | > 50 | 0.41 (≈ 0.791 µM) | > 50 | 0.32 (≈ 0.617 µM) | 1.52 (≈ 2.93 µM) | > 50 | 0.48 (≈ 0.925 µM) | > 50
8 | Cc1ccc(CCc2nc3c(N4CCN(C(=O)COc5ccc(Cl)cc5)CC4)nc(N)nc3s2)cc1 [Example 260, 1-(4-(5-amino-2-(4-methylphenethyl)thiazolo[5,4-d]pyrimidin-7-yl)piperazin-1-yl)-2-(4-chlorophenoxy)ethanone] | 27.9 (≈ 53.3 µM) | > 50 | > 50 | > 50 | > 50 | 2.46 (≈ 4.7 µM) | > 50 | > 50 | > 50 | > 50 | 13 (≈ 24.8 µM) | 1.35 (≈ 2.58 µM) | > 50 |  | > 50
9 | COc1ccc(OCC(=O)N2CCN(c3nc(N)nc4sc(-c5ccc(C)cc5)nc34)CC2)cc1 [Example 294, 1-(4-(5-amino-2-p-tolylthiazolo[5,4-d]pyrimidin-7-yl)piperazin-1-yl)-2-(4-methoxyphenoxy)ethanone] | < 0.39 | 1.82 (≈ 3.71 µM) | 0.02 (≈ 0.0408 µM) |  | 20.6 (≈ 41.9 µM) | < 0.39 | > 50 | 5.26 (≈ 10.7 µM) | < 0.02 | 29.1 (≈ 59.4 µM) | < 0.02 | < 0.39 | 0.63 (≈ 1.28 µM) | < 0.02 | 0.43 (≈ 0.876 µM)
10 | CCCCCc1nc2c(N3CCN(C(=O)COc4ccc(Cl)cc4)CC3)nc(N)nc2s1 [Example 297, 1-(4-(5-amino-2-pentylthiazolo[5,4-d]pyrimidin-7-yl)piperazin-1-yl)-2-(4-chlorophenoxy)ethanone] | 0.53 (≈ 1.12 µM) | 0.38 (≈ 0.8 µM) | 0.14 (≈ 0.295 µM) | 2.42 (≈ 5.09 µM) | 2.46 (≈ 5.18 µM) | 2.29 (≈ 4.82 µM) | > 50 | 4.31 (≈ 9.07 µM) | 0.13 (≈ 0.274 µM) | 0.4 (≈ 0.842 µM) | 0.08 (≈ 0.168 µM) | 1.01 (≈ 2.13 µM) | 4.45 (≈ 9.37 µM) |  | 1.06 (≈ 2.23 µM)

Source: patent US9730944B2, “Antiviral activity of novel bicyclic heterocycles” (priority 2010, dated 2017)
